Results taken from patent publication US9681664B2, “Macrocyclic picolinamides as fungicides” (Dow Agrosciences LLC, priority 2012, dated 2017).
Read-outs that look alike come from different tables or passages of the source.

Experiments:
[1] = test system: Mycosphaerella graminicola; Anamorph: Septoria tritici; experiment: Leaf blotch of wheat (SEPTTR) disease control on wheat seedlings; assay type: in vivo; conditions: Zymoseptoria tritici, High volume application, 100 ppm
Description: Technical grades of materials were dissolved in acetone, which were then mixed with nine volumes of water containing 110 ppm Triton X-100. The fungicide solutions were applied onto wheat seedlings using an automated booth sprayer to run-off. All sprayed plants were allowed to air dry prior to further handling. All fungicides were evaluated using the aforementioned method for their activity vs. all target diseases. Wheat leaf blotch and brown rust activity were also evaluated using track spray applications, in which case the fungicides were formulated as EC formulations, containing 0.1% Trycol 5941 in the spray solutions. Wheat plants (variety Yuma) were grown from seed in a greenhouse in 50% mineral soil/50% soil-less Metro mix until the first leaf was fully emerged, with 7-10 seedlings per pot. These plants were inoculated with an aqueous spore suspension of Septoria tritici either prior to or after fungicide treatments. After inoculation the plants were kept in 100% relative humidity (one day in a dark dew chamber followed by two to three days in a lighted dew chamber at 20° C.) to permit spores to germinate and infect the leaf. The plants were then transferred to a greenhouse set at 20° C. for disease to develop. When disease symptoms were fully expressed on the 1st leaves of untreated plants, infection levels were assessed on a scale of 0 to 100 percent disease severity. Percent disease control was calculated using the ratio of disease severity on treated plants relative to untreated plants.

[2] = test system: Puccinia triticina; Synonym: Puccinia recondite f. sp. tritici; experiment: Wheat brown rust (PUCCRT) disease control on wheat seedlings; assay type: in vivo; conditions: Puccinia triticina, High volume application, 100 ppm
Description: Technical grades of materials were dissolved in acetone, which were then mixed with nine volumes of water containing 110 ppm Triton X-100. The fungicide solutions were applied onto wheat seedlings using an automated booth sprayer to run-off. All sprayed plants were allowed to air dry prior to further handling. All fungicides were evaluated using the aforementioned method for their activity vs. all target diseases. Wheat leaf blotch and brown rust activity were also evaluated using track spray applications, in which case the fungicides were formulated as EC formulations, containing 0.1% Trycol 5941 in the spray solutions. Wheat plants (variety Yuma) were grown from seed in a greenhouse in 50% mineral soil/50% soil-less Metro mix until the first leaf was fully emerged, with 7-10 seedlings per pot. These plants were inoculated with an aqueous spore suspension of Puccinia triticina either prior to or after fungicide treatments. After inoculation the plants were kept in a dark dew room at 22° C. with 100% relative humidity overnight to permit spores to germinate and infect the leaf. The plants were then transferred to a greenhouse set at 24° C. for disease to develop. Fungicide formulation, application and disease assessment followed the procedures as described in the Example A.

[3] = 24 h, 1 Day Protectant, read-out: SEPTTR 1DP disease control
[4] = 72 h, 3 Day Curative, read-out: SEPTTR 3DC disease control
[5] = 24 h, 1 Day Protectant, read-out: PUCCRT 1DP disease control
[6] = 72 h, 3 Day Curative, read-out: PUCCRT 3DC disease control

Measured: pest or weed control at 100 ppm

CCc1ccnc(C(=O)N[C@H]2CCC[C@H](OCC(C)C)[C@@H](OCCC(C)OC)[C@H](C)OC2=O)c1O (stereo partly drawn) [F71]
0 to 80%: [1]; [3] | [1]; [4] | [2]; [5]
80 to 100%: [2]; [6]

COc1ccnc(C(=O)N[C@H]2CCC[C@H](OCC(C)C)[C@@H](OCCC(C)OC)[C@H](C)OC2=O)c1OCOC(C)=O (stereo partly drawn) [F72]
80 to 100%: [1]; [3] | [1]; [4] | [2]; [5] | [2]; [6]

COc1ccnc(C(=O)N[C@H]2CCC[C@H](OC3CCCC3)[C@@H](Oc3ccccc3)[C@H](C)OC2=O)c1O [F74]
80 to 100%: [1]; [3] | [1]; [4] | [2]; [5] | [2]; [6]

COc1ccnc(C(=O)N[C@H]2CCC[C@H](Oc3ccccc3)[C@@H](OC3CCCC3)[C@H](C)OC2=O)c1O [F75]
80 to 100%: [1]; [3] | [1]; [4] | [2]; [5] | [2]; [6]

COc1ccnc(C(=O)N[C@H]2CCC[C@H](OCC(C)C)[C@@H](Oc3ccc(C)cc3)[C@H](C)OC2=O)c1O [F82]
0 to 80%: [1]; [4] | [2]; [5] | [2]; [6]
< 0%: [1]; [3]

COc1ccnc(C(=O)N[C@H]2CCC[C@H](OCC(C)C)[C@@H](OCCC(C)OC)[C@H](C)OC2=O)c1OC(C)=O (stereo partly drawn) [F83]
80 to 100%: [1]; [3] | [1]; [4] | [2]; [5] | [2]; [6]

COc1ccnc(C(=O)N[C@H]2CCC[C@H](OC(=O)C3CCCC3)[C@@H](OC(=O)C3CCCC3)[C@H](C)OC2=O)c1O [F84]
0 to 80%: [1]; [3] | [1]; [4] | [2]; [5] | [2]; [6]

COc1ccnc(C(=O)N[C@H]2CCC[C@H](OCCCC(F)(F)F)[C@@H](OCCCC(F)(F)F)[C@H](C)OC2=O)c1O [F85]
0 to 80%: [1]; [4] | [2]; [6]
< 0%: [1]; [3] | [2]; [5]

COc1ccnc(C(=O)N[C@H]2CCC[C@H](OCC(C)C)[C@@H](Oc3ccc(C)cc3)[C@H](C)OC2=O)c1OCOC(C)=O [F86]
80 to 100%: [1]; [3] | [1]; [4] | [2]; [5] | [2]; [6]

COc1ccnc(C(=O)N[C@H]2CCC[C@H](OCCCC(F)(F)F)[C@@H](OCCCC(F)(F)F)[C@H](C)OC2=O)c1OCOC(C)=O [F87]
80 to 100%: [1]; [3] | [1]; [4] | [2]; [5] | [2]; [6]

COc1ccnc(C(=O)N[C@H]2CCC[C@H](OC(=O)C3CCCC3)[C@@H](OC(=O)C3CCCC3)[C@H](C)OC2=O)c1OCOC(C)=O [F88]
80 to 100%: [1]; [3] | [1]; [4] | [2]; [5] | [2]; [6]

CCCCCO[C@H]1[C@H](C)OC(=O)[C@@H](NC(=O)c2nccc(OC)c2OC(C)=O)CCC[C@@H]1OCC(C)C [F89]
80 to 100%: [1]; [3] | [1]; [4] | [2]; [5] | [2]; [6]

COc1ccnc(C(=O)N[C@H]2CCC[C@H](OCCCC(F)(F)F)[C@@H](OCCCC(F)(F)F)[C@H](C)OC2=O)c1OC(C)=O [F90]
80 to 100%: [1]; [3] | [1]; [4] | [2]; [5] | [2]; [6]

COc1ccnc(C(=O)N[C@H]2CCC[C@H](OC(=O)C3CCCC3)[C@@H](OC(=O)C3CCCC3)[C@H](C)OC2=O)c1OC(C)=O [F91]
80 to 100%: [1]; [3] | [1]; [4] | [2]; [5] | [2]; [6]

COc1ccnc(C(=O)N[C@H]2CCC[C@H](OCC(C)C)[C@@H](Oc3ccc(C)cc3)[C@H](C)OC2=O)c1OC(C)=O [F92]
80 to 100%: [1]; [3] | [1]; [4] | [2]; [5] | [2]; [6]

CCCO[C@H]1[C@H](C)OC(=O)[C@@H](NC(=O)c2nccc(OC)c2O)CCC[C@@H]1Oc1ccccc1 [F93]
80 to 100%: [1]; [3] | [1]; [4] | [2]; [5] | [2]; [6]

CCCCCO[C@H]1[C@H](C)OC(=O)[C@@H](NC(=O)c2nccc(OC)c2O)CCC[C@@H]1Oc1ccccc1 [F94]
0 to 80%: [1]; [3] | [1]; [4] | [2]; [5]
< 0%: [2]; [6]

CCCCCO[C@H]1[C@H](C)OC(=O)[C@@H](NC(=O)c2nccc(OC)c2OCOC(C)=O)CCC[C@@H]1Oc1ccccc1 [F96]
80 to 100%: [1]; [3] | [1]; [4] | [2]; [5] | [2]; [6]

CCCO[C@H]1[C@H](C)OC(=O)[C@@H](NC(=O)c2nccc(OC)c2OCOC(=O)C(C)C)CCC[C@@H]1Oc1ccccc1 [F97]
80 to 100%: [1]; [3] | [1]; [4] | [2]; [5] | [2]; [6]

CCCCCO[C@H]1[C@H](C)OC(=O)[C@@H](NC(=O)c2nccc(OC)c2OCOC(=O)C(C)C)CCC[C@@H]1Oc1ccccc1 [F98]
80 to 100%: [1]; [3] | [1]; [4] | [2]; [5] | [2]; [6]

COc1ccnc(C(=O)N[C@H]2CCC[C@H](OC(=O)C3CCCC3)[C@@H](OC(=O)C3CCCC3)[C@H](C)OC2=O)c1OCOC(=O)C(C)C [F99]
80 to 100%: [1]; [3] | [1]; [4] | [2]; [5] | [2]; [6]

COc1ccnc(C(=O)N[C@H]2CCC[C@H](OCCCC(F)(F)F)[C@@H](OCCCC(F)(F)F)[C@H](C)OC2=O)c1OCOC(=O)C(C)C [F100]
80 to 100%: [1]; [3] | [1]; [4] | [2]; [5] | [2]; [6]

COc1ccnc(C(=O)N[C@H]2CCC[C@H](OCC(C)C)[C@@H](Oc3ccc(C)cc3)[C@H](C)OC2=O)c1OCOC(=O)C(C)C [F101]
80 to 100%: [1]; [3] | [1]; [4] | [2]; [5] | [2]; [6]

CCCO[C@H]1[C@H](C)OC(=O)[C@@H](NC(=O)c2nccc(OC)c2OC(C)=O)CCC[C@@H]1Oc1ccccc1 [F102]
80 to 100%: [1]; [3] | [1]; [4] | [2]; [5] | [2]; [6]

CCCCCO[C@H]1[C@H](C)OC(=O)[C@@H](NC(=O)c2nccc(OC)c2OC(C)=O)CCC[C@@H]1Oc1ccccc1 [F103]
80 to 100%: [1]; [3] | [1]; [4] | [2]; [5] | [2]; [6]

COc1ccnc(C(=O)N[C@H]2CCC[C@H](Oc3ccccc3)[C@@H](OC/C=C/C(F)(F)F)[C@H](C)OC2=O)c1O [F104]
< 0%: [1]; [4] | [2]; [6]
80 to 100%: [1]; [3] | [2]; [5]

COc1ccnc(C(=O)N[C@H]2CCC[C@H](Oc3ccccc3)[C@@H](OCCCC(F)(F)F)[C@H](C)OC2=O)c1O [F105]
< 0%: [2]; [6]
80 to 100%: [1]; [3] | [2]; [5]
0 to 80%: [1]; [4]

COc1ccnc(C(=O)N[C@H]2CCC[C@H](Oc3ccccc3)[C@@H](OC/C=C/C(F)(F)F)[C@H](C)OC2=O)c1OCOC(C)=O [F106]
80 to 100%: [1]; [3] | [1]; [4] | [2]; [5] | [2]; [6]

COc1ccnc(C(=O)N[C@H]2CCC[C@H](Oc3ccccc3)[C@@H](OCCCC(F)(F)F)[C@H](C)OC2=O)c1OCOC(C)=O [F107]
80 to 100%: [1]; [3] | [1]; [4] | [2]; [5] | [2]; [6]

COc1ccnc(C(=O)N[C@H]2CCC[C@H](Oc3ccccc3)[C@@H](OCCCC(F)(F)F)[C@H](C)OC2=O)c1OCOC(=O)C(C)C [F108]
80 to 100%: [1]; [3] | [1]; [4] | [2]; [5] | [2]; [6]
